Results from ChEMBL document CHEMBL1201862, “PubChem BioAssay data set” (2004).
The source made the active and inactive calls.

Assays:
[1] = target: T1, Coagulation factor XII (Homo sapiens, UniProt P00748); assay: activated coagulation factor XII inhibitor potency, concentration-effect curve, cell-free (AID 716); assay type: functional
T1 sequence (P00748 whole entry): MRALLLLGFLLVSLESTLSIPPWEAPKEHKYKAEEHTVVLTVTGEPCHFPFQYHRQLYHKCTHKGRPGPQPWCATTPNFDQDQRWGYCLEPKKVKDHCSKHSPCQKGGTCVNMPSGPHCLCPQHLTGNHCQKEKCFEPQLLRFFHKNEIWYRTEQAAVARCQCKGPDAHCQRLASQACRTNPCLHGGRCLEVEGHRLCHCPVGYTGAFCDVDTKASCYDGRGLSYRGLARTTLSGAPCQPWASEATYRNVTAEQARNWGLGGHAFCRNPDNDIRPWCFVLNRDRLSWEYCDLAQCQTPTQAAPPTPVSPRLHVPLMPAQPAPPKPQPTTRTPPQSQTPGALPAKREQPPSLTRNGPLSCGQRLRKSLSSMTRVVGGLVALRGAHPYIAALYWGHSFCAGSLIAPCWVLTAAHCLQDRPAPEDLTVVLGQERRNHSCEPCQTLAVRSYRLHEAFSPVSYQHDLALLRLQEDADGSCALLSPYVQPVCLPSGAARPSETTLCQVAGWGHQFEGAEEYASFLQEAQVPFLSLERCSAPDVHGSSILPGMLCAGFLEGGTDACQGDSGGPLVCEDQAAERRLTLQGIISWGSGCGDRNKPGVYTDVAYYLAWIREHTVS

[2] = target: X-box-binding protein 1 (Homo sapiens, UniProt P17861); assay type: functional, Cricetulus griseus;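 further: confirmatory dose-response counter-screen serving a CHOP assay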
Sequence of X-box-binding protein 1 (P17861 whole entry): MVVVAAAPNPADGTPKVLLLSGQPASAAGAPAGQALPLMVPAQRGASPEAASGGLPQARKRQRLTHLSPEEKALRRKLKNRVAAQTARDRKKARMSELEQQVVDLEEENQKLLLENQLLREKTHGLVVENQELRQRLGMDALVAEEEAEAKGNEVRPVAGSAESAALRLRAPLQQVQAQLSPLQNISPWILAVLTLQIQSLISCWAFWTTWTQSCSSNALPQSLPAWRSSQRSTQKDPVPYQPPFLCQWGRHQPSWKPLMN

[3] = target: DNA damage-inducible transcript 3 protein (Mus musculus, UniProt P35639); assay type: functional, Cricetulus griseus
Sequence of DNA damage-inducible transcript 3 protein (P35639 whole entry): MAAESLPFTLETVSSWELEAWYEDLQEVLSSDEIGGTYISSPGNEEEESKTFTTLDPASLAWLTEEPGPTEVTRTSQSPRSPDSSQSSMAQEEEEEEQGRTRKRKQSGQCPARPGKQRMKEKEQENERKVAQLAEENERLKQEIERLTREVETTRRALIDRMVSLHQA

[4] = viability of PTEN-deleted HCT116 cells – cell-based, HCT116 PTEN knockout, dose response (AID 1047); assay type: functional;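 further: HCT116 colon tumor cells with PTEN knocked out; cells exposed to compound for 60 hours before readout; potency for loss of cell viability measured by luminescence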
[5] = IC50 of Artemis nuclease activity blockers – biochemical, fluorescence intensity, dose response (AID 720701); assay type: functional;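 further: Artemis endonuclease enzyme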
[6] = target: SUMO-activating enzyme (Homo sapiens, UniProt Q9UBT2); assay: blockers of UBC9-mediated SUMO conjugation – biochemical, AlphaScreen, SUMOylation inhibitor project, confirmation (AID 2018); assay type: functional
Sequence of SUMO-activating enzyme (Q9UBE0 whole entry): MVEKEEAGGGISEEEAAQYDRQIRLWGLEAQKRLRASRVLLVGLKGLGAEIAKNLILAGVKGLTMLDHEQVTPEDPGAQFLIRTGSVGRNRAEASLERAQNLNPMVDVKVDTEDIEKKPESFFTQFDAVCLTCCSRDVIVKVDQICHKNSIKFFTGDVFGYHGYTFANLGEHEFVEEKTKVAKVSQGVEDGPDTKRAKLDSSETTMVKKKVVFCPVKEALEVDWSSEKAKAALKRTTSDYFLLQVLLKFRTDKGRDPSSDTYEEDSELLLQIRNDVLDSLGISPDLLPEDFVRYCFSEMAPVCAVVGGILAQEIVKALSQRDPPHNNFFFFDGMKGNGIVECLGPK
Sequence of SUMO-activating enzyme (Q9UBT2 whole entry): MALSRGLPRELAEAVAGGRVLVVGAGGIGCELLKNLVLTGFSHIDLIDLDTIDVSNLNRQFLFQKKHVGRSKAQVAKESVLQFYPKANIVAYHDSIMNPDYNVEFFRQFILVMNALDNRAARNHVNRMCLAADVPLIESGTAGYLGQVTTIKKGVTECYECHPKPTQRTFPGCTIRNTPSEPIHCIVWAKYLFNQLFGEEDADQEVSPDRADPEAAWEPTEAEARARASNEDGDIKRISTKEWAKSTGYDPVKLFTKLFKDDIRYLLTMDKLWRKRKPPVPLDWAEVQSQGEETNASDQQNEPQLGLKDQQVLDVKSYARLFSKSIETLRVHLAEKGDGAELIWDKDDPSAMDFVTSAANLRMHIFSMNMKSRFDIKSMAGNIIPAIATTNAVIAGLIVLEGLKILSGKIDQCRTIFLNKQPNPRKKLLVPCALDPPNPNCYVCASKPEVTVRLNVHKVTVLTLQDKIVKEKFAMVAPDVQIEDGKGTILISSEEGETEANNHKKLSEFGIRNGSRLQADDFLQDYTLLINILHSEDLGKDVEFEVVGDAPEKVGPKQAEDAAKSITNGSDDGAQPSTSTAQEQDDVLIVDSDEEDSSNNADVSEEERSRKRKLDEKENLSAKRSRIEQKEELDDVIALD

[7] = viability of HCT116 lacking mutant beta-catenin – cell-based, human colon tumor, dose response (AID 1045); assay type: functional;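 further: HCT116 colon tumor cells with beta catenin knocked out; cells exposed to compound for 60 hours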
[8] = target: Alkaline phosphatase, placental type (Homo sapiens, UniProt P05187); assay: human placental alkaline phosphatase inhibition – biochemical, luminescence, confirmation (AID 1512); assay type: functional
Sequence of Alkaline phosphatase, placental type (P05187 whole entry): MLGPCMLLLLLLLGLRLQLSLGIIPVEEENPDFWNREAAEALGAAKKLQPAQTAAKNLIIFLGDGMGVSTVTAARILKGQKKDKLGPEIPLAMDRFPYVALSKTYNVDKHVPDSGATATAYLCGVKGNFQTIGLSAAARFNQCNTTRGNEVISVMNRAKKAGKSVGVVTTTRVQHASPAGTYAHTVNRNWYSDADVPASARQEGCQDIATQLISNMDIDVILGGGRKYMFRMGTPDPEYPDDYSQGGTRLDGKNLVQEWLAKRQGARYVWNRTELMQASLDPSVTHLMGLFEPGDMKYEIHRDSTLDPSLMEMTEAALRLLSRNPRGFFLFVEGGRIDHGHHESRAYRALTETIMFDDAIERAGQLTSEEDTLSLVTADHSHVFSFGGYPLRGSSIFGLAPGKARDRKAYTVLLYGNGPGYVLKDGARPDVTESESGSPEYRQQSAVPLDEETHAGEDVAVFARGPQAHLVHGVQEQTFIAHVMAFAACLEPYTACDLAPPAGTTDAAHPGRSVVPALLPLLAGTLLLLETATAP

[9] = target: T2, Kappa-type opioid receptor (Homo sapiens, UniProt P41145); assay: SAR analysis of Antagonists of the Kappa Opioid Receptor (KOR) using an Image-Based Assay - Set 3. [Related pubchem assays (depositor defined):AID1777, AID1785]; assay type: functional
T2 sequence (P41145 whole entry): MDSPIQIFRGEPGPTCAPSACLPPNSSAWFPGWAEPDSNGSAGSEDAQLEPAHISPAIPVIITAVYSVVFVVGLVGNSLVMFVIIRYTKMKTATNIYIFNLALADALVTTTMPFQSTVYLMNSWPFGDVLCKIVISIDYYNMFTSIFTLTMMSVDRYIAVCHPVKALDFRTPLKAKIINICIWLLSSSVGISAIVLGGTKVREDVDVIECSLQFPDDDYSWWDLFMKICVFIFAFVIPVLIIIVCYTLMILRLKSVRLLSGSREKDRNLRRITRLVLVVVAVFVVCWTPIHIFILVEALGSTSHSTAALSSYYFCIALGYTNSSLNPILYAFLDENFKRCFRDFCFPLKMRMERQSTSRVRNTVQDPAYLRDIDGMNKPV

[10] = target: Mu-type opioid receptor (Homo sapiens, UniProt P35372); assay: SAR Analysis of Antagonists of the MOR Receptor using an Image-Based Assay - Set 3. [Related pubchem assays (depositor defined):AID1777, AID1785, AID1786, AID1966, AID2133, AID2136, AID2284, AID2285, AID2420]; assay type: functional
Sequence of Mu-type opioid receptor (P35372 whole entry): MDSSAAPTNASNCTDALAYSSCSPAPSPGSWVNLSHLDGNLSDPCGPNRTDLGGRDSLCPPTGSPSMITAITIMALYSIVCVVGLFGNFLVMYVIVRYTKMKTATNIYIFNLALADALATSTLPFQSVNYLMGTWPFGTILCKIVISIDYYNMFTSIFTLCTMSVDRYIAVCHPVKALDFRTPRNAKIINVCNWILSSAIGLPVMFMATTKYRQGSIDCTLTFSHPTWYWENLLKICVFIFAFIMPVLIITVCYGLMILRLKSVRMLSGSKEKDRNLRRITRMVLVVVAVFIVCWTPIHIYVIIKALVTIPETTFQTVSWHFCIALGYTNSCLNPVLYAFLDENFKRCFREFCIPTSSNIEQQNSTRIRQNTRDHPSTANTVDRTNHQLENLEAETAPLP

[11] = target: T2, Kappa-type opioid receptor; assay: SAR analysis of small molecule antagonists of the kappa opioid receptor via a luminescent beta-arrestin assay - Set 3. [Related pubchem assays (depositor defined):AID1777, AID1778, AID1785, AID1786, AID1966, AID2133, AID2136, AID2285, AID2495]; assay type: functional
[12] = target: Delta-type opioid receptor (Homo sapiens, UniProt P41143); assay: SAR Analysis of Antagonists of the DOR Receptor using an Image-Based Assay - Set 3. [Related pubchem assays (depositor defined):AID1777, AID1785]; assay type: functional;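 further: U2OS cells expressing DOR1 and beta-arrestin GFP stimulated with 100 nM SNC80; imaging of GFP-tagged beta-arrestin moving into spots after receptor activation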
Sequence of Delta-type opioid receptor (P41143 whole entry): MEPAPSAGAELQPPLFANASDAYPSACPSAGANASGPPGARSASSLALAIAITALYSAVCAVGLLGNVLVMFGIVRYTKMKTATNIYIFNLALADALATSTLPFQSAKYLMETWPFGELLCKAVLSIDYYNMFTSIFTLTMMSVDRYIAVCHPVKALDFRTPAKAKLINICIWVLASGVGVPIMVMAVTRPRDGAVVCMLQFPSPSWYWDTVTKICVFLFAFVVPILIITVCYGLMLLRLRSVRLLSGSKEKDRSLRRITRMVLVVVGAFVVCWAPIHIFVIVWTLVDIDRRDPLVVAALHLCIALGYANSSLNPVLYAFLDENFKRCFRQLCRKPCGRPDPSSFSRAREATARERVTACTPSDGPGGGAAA

[13] = target: Phosphomannomutase 2 (Homo sapiens, UniProt O15305); assay: Counter screen SAR assay for PMM2 inhibitors via a fluorescence intensity assay. [Related pubchem assays (depositor defined):AID1545, AID1574]
Sequence of Phosphomannomutase 2 (O15305 whole entry): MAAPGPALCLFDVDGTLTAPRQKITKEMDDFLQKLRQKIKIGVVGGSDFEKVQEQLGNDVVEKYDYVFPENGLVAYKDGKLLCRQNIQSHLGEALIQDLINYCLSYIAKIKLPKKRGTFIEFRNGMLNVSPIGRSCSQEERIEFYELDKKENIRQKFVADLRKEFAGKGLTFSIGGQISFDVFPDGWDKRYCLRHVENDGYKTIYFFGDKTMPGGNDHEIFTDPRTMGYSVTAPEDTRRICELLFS

[14] = target: Phosphoethanolamine/phosphocholine phosphatase (Homo sapiens, UniProt Q8TCT1); assay: SAR assay for compounds that inhibit PHOSPHO1. [Related pubchem assays (depositor defined):AID1545, AID1565, AID1574]
Sequence of Phosphoethanolamine/phosphocholine phosphatase (Q8TCT1 whole entry): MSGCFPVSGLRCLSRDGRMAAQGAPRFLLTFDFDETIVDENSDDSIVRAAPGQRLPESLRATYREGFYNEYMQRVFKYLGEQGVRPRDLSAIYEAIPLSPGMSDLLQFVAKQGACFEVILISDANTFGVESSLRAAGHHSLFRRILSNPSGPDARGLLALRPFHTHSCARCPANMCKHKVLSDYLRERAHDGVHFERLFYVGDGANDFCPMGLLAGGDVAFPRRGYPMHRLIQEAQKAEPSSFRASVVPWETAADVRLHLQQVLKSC

[15] = target: T3, Mannose-6-phosphate isomerase (Homo sapiens, UniProt P34949); assay: phosphomannose isomerase inhibition – biochemical, fluorescence intensity, confirmation (AID 1535)
T3 sequence (P34949 whole entry): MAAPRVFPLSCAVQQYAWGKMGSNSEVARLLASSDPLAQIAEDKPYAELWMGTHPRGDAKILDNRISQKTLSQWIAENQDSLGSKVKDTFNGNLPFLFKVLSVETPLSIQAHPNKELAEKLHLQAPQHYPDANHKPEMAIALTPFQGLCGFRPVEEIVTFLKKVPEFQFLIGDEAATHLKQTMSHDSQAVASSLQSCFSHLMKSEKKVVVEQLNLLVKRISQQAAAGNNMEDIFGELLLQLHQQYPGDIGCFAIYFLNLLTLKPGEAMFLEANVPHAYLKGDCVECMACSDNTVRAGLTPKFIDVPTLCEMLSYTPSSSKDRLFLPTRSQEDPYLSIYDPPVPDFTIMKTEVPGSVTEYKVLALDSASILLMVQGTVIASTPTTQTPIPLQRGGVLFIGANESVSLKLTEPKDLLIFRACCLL

[16] = target: T4, Alkaline phosphatase, tissue-nonspecific isozyme (Homo sapiens, UniProt P05186); assay: potency against alkaline phosphatase TNAP – biochemical, luminescent, dose response, SAR follow-up (AID 1056)
T4 sequence (P05186 whole entry): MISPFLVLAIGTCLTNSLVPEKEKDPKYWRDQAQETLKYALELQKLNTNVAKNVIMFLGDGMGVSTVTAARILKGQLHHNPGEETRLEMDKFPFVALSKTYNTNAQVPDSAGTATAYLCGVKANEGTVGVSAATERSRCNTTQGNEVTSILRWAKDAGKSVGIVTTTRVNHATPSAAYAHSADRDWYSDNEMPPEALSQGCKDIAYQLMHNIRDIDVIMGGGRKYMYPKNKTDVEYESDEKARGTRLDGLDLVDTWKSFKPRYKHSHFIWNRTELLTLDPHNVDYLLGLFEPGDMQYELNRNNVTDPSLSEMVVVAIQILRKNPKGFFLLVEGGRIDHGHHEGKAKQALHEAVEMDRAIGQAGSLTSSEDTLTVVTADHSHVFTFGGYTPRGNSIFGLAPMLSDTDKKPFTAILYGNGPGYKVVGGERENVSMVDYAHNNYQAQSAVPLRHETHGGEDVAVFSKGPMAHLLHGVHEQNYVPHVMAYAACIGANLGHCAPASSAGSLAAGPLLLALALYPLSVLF

[17] = target: T5, Runt-related transcription factor 1/Core-binding factor subunit beta (Homo sapiens, UniProt Q01196+Q13951); assay: Runt domain/CBFb-SMMHC interaction disruptors – biochemical, TR-FRET (AID 1438); assay type: protein assay
T5 sequence (Q01196 whole entry, the tested form may be a part): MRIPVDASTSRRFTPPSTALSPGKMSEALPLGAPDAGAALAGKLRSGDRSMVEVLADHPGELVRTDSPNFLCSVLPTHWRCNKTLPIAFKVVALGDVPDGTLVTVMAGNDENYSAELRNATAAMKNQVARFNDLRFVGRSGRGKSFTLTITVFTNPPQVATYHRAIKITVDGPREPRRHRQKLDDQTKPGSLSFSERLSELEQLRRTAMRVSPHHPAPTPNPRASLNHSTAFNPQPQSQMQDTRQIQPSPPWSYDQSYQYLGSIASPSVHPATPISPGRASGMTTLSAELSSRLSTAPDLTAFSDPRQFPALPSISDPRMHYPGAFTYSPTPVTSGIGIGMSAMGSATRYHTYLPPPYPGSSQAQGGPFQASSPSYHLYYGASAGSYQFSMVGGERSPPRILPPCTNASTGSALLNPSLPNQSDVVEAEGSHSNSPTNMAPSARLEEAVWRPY
T5 sequence (Q13951 whole entry, the tested form may be a part): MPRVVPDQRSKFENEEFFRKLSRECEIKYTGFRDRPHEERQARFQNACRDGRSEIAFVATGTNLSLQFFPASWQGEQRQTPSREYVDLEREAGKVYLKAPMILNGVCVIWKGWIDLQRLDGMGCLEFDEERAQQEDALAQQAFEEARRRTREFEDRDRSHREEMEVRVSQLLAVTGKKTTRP

[18] = target: T5, Runt-related transcription factor 1/Core-binding factor subunit beta; assay: disruptors of Runt domain/CBFb-SMMHC interaction – biochemical, FRET, Cerulean-Runt, Venus-CBFb-SMMHC, uHTS, […] (AID 1434); assay type: protein assay

## O=C(NCc1n[nH]c(=S)n1-c1ccccc1)c1ccco1
[1]
  IC50: > 50 µM (inactive)

## Cc1ccc(NC(=O)c2cc(NC(=O)c3ccco3)ccc2N2CCCCC2)cc1
[2]
  Absolute IC50 (XBP1): 10 µM
[3]
  Absolute IC50 (CHOP): 10 µM

## Cn1c(-c2ccc(C=O)s2)nc2c3ccccc3c3ccccc3c21
[4]
  EC50: 25.7 µM (active)
[5]
  IC50: > 20 µM (inactive)
[6]
  IC50: > 100 µM (inactive)
[7]
  EC50: 24.9 µM (active)

## COCCNC(=O)NC1(C(F)(F)F)Oc2cc(Cl)c(Cl)cc2O1
[8]
  IC50: > 100 µM (inactive)

## O=C(Cn1c(=O)c2cccn2c2cccnc21)NCCCN1CCC(Cc2ccccc2)CC1
[9]
  IC50: 1.31 µM (active)
[10]
  IC50: > 32 µM (inactive)
[11]
  IC50: 4.65 µM (active)
[12]
  IC50: > 32 µM (inactive)

## Cc1ccc(C)c(-n2[se]c3ccccc3c2=O)c1
[13]
  IC50: > 100 µM (inactive)
[14]
  IC50: 36 µM (inactive)
[15]
  IC50: 88 µM (active)

## CC(C)NCC(=O)c1ccc(O)c(O)c1
[16]
  IC50: > 100 µM (inactive)

## C/C(=N\Nc1nc(-c2cc(C)ccc2C)cs1)c1cc2c(ccc3ccccc32)oc1=O
[17]
  IC50: 10.1 µM (active)
[18]
  IC50: > 100 µM (inactive)
